Laboratory results published in patent publication US20240309016A1, “MACROCYCLIC HETEROCYCLE COMPOUNDS AND USE THEREOF” (TAKEDA PHARMACEUTICAL COMPANY LIMITED, priority 2023, published 2024).
Structures can show the parent of a compound that is named as a salt. Where two headings read alike, the source gives them in different places.

Assays:
human OX2 receptor = molecular target: T1, human OX2 receptor (Homo sapiens, UniProt O43614); assay: Measurement of orexin type 2 receptor agonist activity (Experimental Example 3; calcium 5 dye, FLIPR Tetra); format: cell-based; conditions: compound at 1 μM; CHO cells expressing human OX2 receptor; DMSO = 0%, 10 nM orexin A (human) = 100%
T1 construct: expressed in transfected cells
T1 sequence (O43614 1-444): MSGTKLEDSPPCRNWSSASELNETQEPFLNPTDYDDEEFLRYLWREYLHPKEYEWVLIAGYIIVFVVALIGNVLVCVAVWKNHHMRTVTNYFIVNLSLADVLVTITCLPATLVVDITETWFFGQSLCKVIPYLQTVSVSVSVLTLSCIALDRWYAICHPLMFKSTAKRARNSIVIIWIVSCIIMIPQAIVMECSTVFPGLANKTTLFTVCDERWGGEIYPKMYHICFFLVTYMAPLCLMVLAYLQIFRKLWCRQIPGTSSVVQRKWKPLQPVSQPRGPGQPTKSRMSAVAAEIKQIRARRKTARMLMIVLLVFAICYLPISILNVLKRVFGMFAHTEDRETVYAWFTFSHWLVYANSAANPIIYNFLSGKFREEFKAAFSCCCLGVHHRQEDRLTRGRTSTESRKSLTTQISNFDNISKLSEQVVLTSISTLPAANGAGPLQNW
Experimental: In order to obtain cell clones that stably express human orexin type 2 receptor, human orexin type 2 (residues 1-444, NCBI Reference Sequence: AK314279) was constructed in a pcDNA3.1 (+) vector (Invitrogen) to express in mammalian cells. This plasmid DNA was transfected into CHO-K1 cells by electroporation, and stable clones were obtained by limiting dilution using resistance to G418 as a selection marker.
CHO cells in which human OX2 receptor was forcibly expressed were seeded at 5,000 cells/well into a 384-well black transparent bottom plate (Costar) in 25 ul complete media, and were then incubated at 37° C., 5% CO2 for 1 day. The next day, 25 ul of 2× calcium 5 dye (Molecular Devices) in assay buffer (HBSS (Thermo Fisher Scientific), 20 mM HEPES (Thermo Fisher Scientific), 2.5 mM probenecid). After incubation in a 5% CO2 incubator at 37° C. for 40 minutes, it was incubated at room temperature for another 20 minutes. Add 5 μL/well of the test compound diluted with assay buffer B (HBSS, 20 mM HEPES), using FLIPR Tetra (Molecular Devices) to measure the fluorescence value every 1 second for 1 minute, and then every 2 seconds for 1 minute. It was measured for 1 minute and 40 seconds. The amount of fluorescence value when DMSO is added instead of the test compound is defined as 0%, and the amount of fluorescence value when orexin A (human) (Peptide Institute) with a final concentration of 10 nM is added is defined as 100%. The activity (%) of the test compound was calculated.

| SMILES | OX2R agonist activity (1 μM, %) (human OX2 receptor) | other results |
| --- | --- | --- |
| CCS(=O)(=O)N[C@@H]1[C@@H]2Cc3ccc(C)c(c3F)Oc3nc(ccc3C)CNC(=O)N2CC1(F)F [Example 101, N-[(15aS,16R)-17,17,20-trifluoro-7,11-dimethyl-1-oxo-2,3,15a,16,17,18-hexahydro-1H,15H-4,8-(azeno)-10,14-(metheno)pyrrolo[1,2-j][1,8,10]oxadiazacyclohept-adecin-16-yl]ethanesulfonamide] | 108% |  |
| CCS(=O)(=O)N[C@@H]1[C@@H]2Cc3cccc(c3F)Oc3nc(ccc3C)NCC(=O)N2CC1(F)F [Example 99, N-[(15aS,16R)-17,17,20-trifluoro-7-methyl-1-oxo-2,3,15a,16,17,18-hexahydro-1H,15H-4,8-(azeno)-14,10-(metheno)pyrrolo[1,2-j][1,7,10]oxadiazacyclo-heptadecin-16-yl]ethanesulfonamide] | 97% | ring closure, yield of all isomers (from CCS(=O)(=O)N[C@@H]1[C@H](Cc2cccc(Oc3nc(NCC(=O)O)ccc3C)c2F)NCC1(F)F, amide bond, HATU / DIPEA, DMF, 1.74 mM, 25.0 °C, 12.0 h): 13.3% |
| CCS(=O)(=O)N[C@@H]1[C@@H]2Cc3cccc(c3F)Cc3nc(ccc3C)OCC(=O)N2CC1(F)F [Example 102, N-[(15aS,16R)-17,17,20-trifluoro-7-methyl-1-oxo-1,2,15a,16,17,18-hexahydro-9H,15H-4,8-(azeno)-10,14-(metheno)pyrrolo[1,2-d][1,4]oxazacycloheptadecin-16-yl]ethanesulfonamide] | 94% |  |
| CCS(=O)(=O)N[C@@H]1[C@@H]2Cc3c(C)ccc(c3F)Oc3nc(ccc3C)CNC(=O)N2CC1(F)F [Example 98, N-[(15aS,16R)-17,17,20-trifluoro-7,13-dimethyl-1-oxo-2,3,15a,16,17,18-hexahydro-1H,15H-4,8-(azeno)-14,10-(metheno)pyrrolo[1,2-j][1,8,10]oxadiazacyclo-heptadecin-16-yl]ethanesulfonamide] | 65% |  |
| CCS(=O)(=O)N[C@@H]1[C@@H]2Cc3cccc(c3F)C(F)(F)c3nc(ccc3C)CNC(=O)N2CC1(F)F [Example 100, N-[(15aS,16R)-9,9,17,17,20-pentafluoro-7-methyl-1-oxo-2,3,15a,16,17,18-hexahydro-1H,9H,15H-4,8-(azeno)-14,10-(metheno)pyrrolo[1,2-c][1,3]diazacycloheptadecin-16-yl]ethanesulfonamide] | 84% | ring closure, yield of all isomers (from CCS(=O)(=O)N[C@@H]1[C@H](Cc2cccc(C(F)(F)c3nc(CN)ccc3C)c2F)NCC1(F)F, other bond, CDI/DIPEA, THF, 11.0 mM, 45.0 °C, 16.0 h): 30.8% |
| CCS(=O)(=O)N[C@@H]1[C@@H]2Cc3cccc(c3F)Cc3cc(ccc3C)CNC(=O)N2CC1(F)F [Example 103, N-[(15aS,16R)-17,17,20-trifluoro-7-methyl-1-oxo-2,3,15a,16,17,18-hexahydro-1H,9H,15H-4,8:10,14-di(metheno)pyrrolo[1,2-c][1,3]diazacycloheptadecin-16-yl]ethanesulfonamide] | 104% |  |
| CCS(=O)(=O)N[C@@H]1[C@@H]2Cc3cccc(c3F)Cc3nc(ccc3C)CNC(=O)N2CC1(F)F [Example 104, N-[(15aS,16R)-17,17,20-trifluoro-7-methyl-1-oxo-2,3,15a,16,17,18-hexahydro-1H,9H,15H-4,8-(azeno)-10,14-(metheno)pyrrolo[1,2-c][1,3]diazacycloheptadecin-16-yl]ethanesulfonamide hydrochloride] | 109% |  |

Continued, in another order:

| OX2R agonist activity (1 μM, %) (human OX2 receptor) | SMILES | other results |
| --- | --- | --- |
| 108% | CC(C)S(=O)(=O)N[C@@H]1[C@@H]2Cc3cccc(c3F)Oc3nc(ccc3C(F)F)CNC(=O)N2CC1(F)F [Example 110, N-[(15aS,16R)-7-(difluoromethyl)-17,17,20-trifluoro-1-oxo-2,3,15a,16,17,18-hexahydro-1H,15H-4,8-(azeno)-10,14-(metheno)pyrrolo[1,2-j][1,8,10]oxadiazacyclo-heptadecin-16-yl]propane-2-sulfonamide] |  |
| 106% | CCS(=O)(=O)N[C@@H]1[C@@H]2Cc3cccc(c3F)[C@@H](C)c3nc(ccc3C)CNC(=O)N2CC1(F)F (single isomer, unassigned) [Example 105, N-[(9R,15aS,16R)-17,17,20-trifluoro-7,9-dimethyl-1-oxo-2,3,15a,16,17,18-hexahydro-1H,9H,15H-4,8-(azeno)-10,14-(metheno)pyrrolo[1,2-c][1,3]diazacycloheptadecin-16-yl]ethanesulfonamide or N-[(9S,15aS,16R)-17,17,20-trifluoro-7,9-dimethyl-1-oxo-2,3,15a,16,17,18-hexahydro-1H,9H,15H-4,8-(azeno)-10,14-(metheno)pyrrolo[1,2-c][1,3]diazacycloheptadecin-16-yl]ethanesulfonamide] |  |
| 101% | CC(C)S(=O)(=O)N[C@@H]1[C@@H]2Cc3cccc(c3F)Oc3nc(ccc3Cl)CNC(=O)N2CC1(F)F [Example 108, N-[(15aS,16R)-7-chloro-17,17,20-trifluoro-1-oxo-2,3,15a,16,17,18-hexahydro-1H,15H-4,8-(azeno)-10,14-(metheno)pyrrolo[1,2-j][1,8,10]oxadiazacyclo-heptadecin-16-yl]propane-2-sulfonamide] |  |
| 108% | Cc1cc(F)c2nc1Oc1cccc(c1F)C[C@H]1[C@@H](NS(=O)(=O)C(C)C)C(F)(F)CN1C(=O)NC2 [Example 109, N-[(15aS,16R)-5,17,17,20-tetrafluoro-7-methyl-1-oxo-2,3,15a,16,17,18-hexahydro-1H,15H-4,8-(azeno)-10,14-(metheno)pyrrolo[1,2-j][1,8,10]oxadiazacyclo-heptadecin-16-yl]propane-2-sulfonamide] |  |
| 90% | CCS(=O)(=O)N[C@@H]1[C@@H]2Cc3cccc(c3F)[C@H](C)c3nc(ccc3C)CNC(=O)N2CC1(F)F (single isomer, unassigned) [Example 106] |  |
| 103% | CCS(=O)(=O)N[C@@H]1[C@@H]2Cc3cccc(c3F)Cc3nc(ccc3C)O[C@@H](C)C(=O)N2CC1(F)F [Example 111, N-[(2S,15aS,16R)-17,17,20-trifluoro-2,7-dimethyl-1-oxo-1,2,15a,16,17,18-hexahydro-9H,15H-4,8-(azeno)-10,14-(metheno)pyrrolo[1,2-d][1,4]oxazacycloheptadecin-16-yl]ethanesulfonamide] | ring closure, yield of all isomers (from CCS(=O)(=O)N[C@@H]1[C@H](Cc2cccc(Cc3nc(O[C@@H](C)C(=O)O)ccc3C)c2F)NCC1(F)F, amide bond, HATU/DIPEA, DMF, 2.83 mM, 25.0 °C, 16.0 h): 11.8% |
